ChEMBL document CHEMBL5241090, “A comprehensive overview of β-carbolines and its derivatives as anticancer agents” (Eur J Med Chem, 2021)
Converted amounts (≈) assume the structure as drawn.

What was measured:
[1] = system: MOLT-4F; assay: Cytotoxicity against human MOLT-4F cells; assay type: functional, cell-based
[2] = system: MT4; assay: Cytotoxicity against human MT4 cells; assay type: functional, cell-based
[3] = system: L1210; assay: Cytotoxicity against mouse L1210 cells; assay type: functional, cell-based
[4] = target: Cyclin-dependent kinase 2/cyclin A (Homo sapiens, UniProt P24941); assay: Inhibition of CDK2/Cyclin A (unknown origin); assay type: protein-complex assay
[5] = target: Serine/threonine-protein kinase PLK1 (Homo sapiens, UniProt P53350); assay: Inhibition of PLK1 (unknown origin)
Serine/threonine-protein kinase PLK1, sequence (P53350 whole entry): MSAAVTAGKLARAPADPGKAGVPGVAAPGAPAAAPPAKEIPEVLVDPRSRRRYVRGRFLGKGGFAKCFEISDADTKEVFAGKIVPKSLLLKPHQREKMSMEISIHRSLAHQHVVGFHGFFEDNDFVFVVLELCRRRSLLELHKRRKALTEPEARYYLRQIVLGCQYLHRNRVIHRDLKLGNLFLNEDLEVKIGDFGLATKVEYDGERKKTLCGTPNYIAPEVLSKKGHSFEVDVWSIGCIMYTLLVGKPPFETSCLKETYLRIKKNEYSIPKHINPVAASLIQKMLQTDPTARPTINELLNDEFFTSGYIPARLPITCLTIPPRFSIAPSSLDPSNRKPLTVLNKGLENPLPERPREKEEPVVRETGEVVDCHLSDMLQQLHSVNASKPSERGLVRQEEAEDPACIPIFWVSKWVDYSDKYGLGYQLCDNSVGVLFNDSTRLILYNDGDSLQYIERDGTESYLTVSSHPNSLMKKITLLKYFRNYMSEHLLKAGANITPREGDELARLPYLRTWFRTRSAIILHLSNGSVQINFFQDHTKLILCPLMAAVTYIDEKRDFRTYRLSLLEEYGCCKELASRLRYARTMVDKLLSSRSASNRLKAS

[6] = target: Serine/threonine-protein kinase haspin (Homo sapiens, UniProt Q8TF76); assay: Inhibition of HASPIN (unknown origin)
Serine/threonine-protein kinase haspin, sequence (Q8TF76 whole entry): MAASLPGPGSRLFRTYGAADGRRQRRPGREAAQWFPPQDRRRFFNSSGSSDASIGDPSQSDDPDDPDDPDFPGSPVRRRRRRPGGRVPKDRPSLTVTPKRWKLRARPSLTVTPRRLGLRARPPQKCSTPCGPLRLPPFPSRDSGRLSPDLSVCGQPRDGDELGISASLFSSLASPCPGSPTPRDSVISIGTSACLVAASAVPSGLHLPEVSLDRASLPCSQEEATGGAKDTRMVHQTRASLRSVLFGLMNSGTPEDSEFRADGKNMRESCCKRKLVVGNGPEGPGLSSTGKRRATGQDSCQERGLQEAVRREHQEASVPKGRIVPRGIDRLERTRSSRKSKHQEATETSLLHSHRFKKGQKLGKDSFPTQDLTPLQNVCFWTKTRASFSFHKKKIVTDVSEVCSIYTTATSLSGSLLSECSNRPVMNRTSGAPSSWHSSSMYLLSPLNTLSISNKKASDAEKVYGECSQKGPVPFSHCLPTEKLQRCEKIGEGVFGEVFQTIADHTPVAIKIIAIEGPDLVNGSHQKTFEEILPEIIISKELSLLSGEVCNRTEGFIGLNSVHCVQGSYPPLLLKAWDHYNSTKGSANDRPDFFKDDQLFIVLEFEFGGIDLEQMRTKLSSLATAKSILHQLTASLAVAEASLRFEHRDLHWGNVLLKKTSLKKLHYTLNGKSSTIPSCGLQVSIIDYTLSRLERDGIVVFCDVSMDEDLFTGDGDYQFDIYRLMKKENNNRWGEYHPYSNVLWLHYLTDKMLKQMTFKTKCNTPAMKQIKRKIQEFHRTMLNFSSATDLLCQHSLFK

[7] = system: BT-474; assay: Cytotoxicity against human BT-474 cells; assay type: functional, cell-based
[8] = system: A549; assay: Cytotoxicity against human A549 cells; assay type: functional, cell-based
[9] = system: HCT-116; assay: Cytotoxicity against human HCT-116 cells; assay type: functional, cell-based
[10] = system: NCI-H460; assay: Cytotoxicity against human NCI-H460 cells; assay type: functional, cell-based
[11] = system: HL-60; assay: Cytotoxicity against human HL-60 cells; assay type: functional, cell-based; conditions: Homo sapiens, HL-60; read-out: IC50
[12] = system: THP-1; assay: Cytotoxicity against human THP-1 cells; assay type: functional, cell-based
[13] = system: MOLT-4; assay: Cytotoxicity against human MOLT-4 cells; assay type: functional, cell-based
[14] = system: RAW264.7; assay: Cytotoxicity against mouse RAW264.7 cells; assay type: functional, cell-based

COc1ccc2[nH]c3c(c2c1)CCN1OCSC[C@@H](N)C31 (some centres undefined)
IC50 [1]: 6.2 ng/mL (≈ 0.0203 µM)
IC50 [2]: 5 ng/mL (≈ 0.0164 µM)
IC50 [3]: 5 ng/mL (≈ 0.0164 µM)

CCCC[n+]1ccc2c3ccccc3n(Cc3ccccc3)c2c1-c1ccccc1Cl
IC50 [4]: 27000 nM

COc1ccc2c3cc[n+](CCCc4ccccc4)c(C)c3n(Cc3cccc(Cl)c3)c2c1
IC50 [5]: 897 nM

Cc1nccc2c1[nH]c1cc(O)ccc12
IC50 [6]: 770 nM

COc1ccc(-c2nc(C(=O)Nc3nc4ccc([N+](=O)[O-])cc4s3)cc3c2[nH]c2ccccc23)cc1
IC50 [7]: 1460 nM
IC50 [8]: 1460 nM
IC50 [9]: 1460 nM
IC50 [10]: 1460 nM
IC50 [11]: 1460 nM
IC50 [12]: 1460 nM
IC50 [13]: 1460 nM

CN1CCN(C(=O)[C@H]2Cc3c([nH]c4ccccc34)CN2Cc2ccc3ccccc3c2Br)CC1
IC50 [14]: 18000 nM
